Data reported in patent US9708336B2, “Metallo-beta-lactamase inhibitors” (priority 2014, dated 2017).
Like-named read-outs stand apart in the source and are kept apart here.

How the values were obtained:
NDM-1 = NDM-1 (Klebsiella pneumoniae, UniProt C7C422); test: biochemical; type: biochemical; details: NDM-1 enzyme, CCF2-FA substrate; read-out: NDM-1 IC50
IMP-1 = IMP-1 (Serratia marcescens, UniProt P52699); test: biochemical; type: biochemical; details: IMP-1 enzyme, CCF2-FA substrate; read-out: IMP-1 IC50
VIM-1 = VIM-1 (Pseudomonas aeruginosa (strain ATCC 15692 / DSM 22644 / CIP 104116 / JCM 14847 / LMG 12228 / 1C / PRS 101 / PAO1), UniProt A0A0F7KYQ8); test: Enzyme activity: determination of IC50, fluorescence assay with CCF2-FA substrate (VIM-1); type: biochemical; details: CCF2-FA substrate
[1] = system: Escherichia coli expressing NDM-1 (CLB30016); test: Antibiotic potentiation activity: synergistic concentration (MITC95) with imipenem, OD600 growth; type: cell-based; details: (CLB30016, NDM-1), 95% growth inhibition
How it was run: (§1)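 Compound activity is tested with and without imipenem, which is present at 4 μg/ml (or 1 μg/ml) in the well. Bacteria in 1.1× CAMHB are incubated 22–24 h at 35 °C; absorbance gives the growth endpoint.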

[2] = system: Klebsiella pneumoniae expressing VIM-1 (IHMA599644); test: as above; type: cell-based; details: Klebsiella pneumoniae IHMA599644 (VIM-1), 95% growth inhibition
How it was run: as §1

[3] = system: Serratia marcescens expressing IMP-1 (CL5741); test: as above; type: cell-based; details: Serratia marcescens CL5741 (IMP-1), 95% growth inhibition
How it was run: as §1

[4] = VIM-1 enzyme, read-out: VIM-1 IC50

IMP-1, sequence (P52699 whole entry, looked up): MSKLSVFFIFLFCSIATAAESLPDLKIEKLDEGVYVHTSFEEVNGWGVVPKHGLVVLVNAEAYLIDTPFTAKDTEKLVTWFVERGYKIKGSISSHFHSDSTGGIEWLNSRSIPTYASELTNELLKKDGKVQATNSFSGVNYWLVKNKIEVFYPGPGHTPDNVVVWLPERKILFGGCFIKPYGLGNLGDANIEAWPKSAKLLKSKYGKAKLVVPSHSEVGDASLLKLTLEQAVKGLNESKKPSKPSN
NDM-1, sequence (C7C422 whole entry, looked up, species assumed): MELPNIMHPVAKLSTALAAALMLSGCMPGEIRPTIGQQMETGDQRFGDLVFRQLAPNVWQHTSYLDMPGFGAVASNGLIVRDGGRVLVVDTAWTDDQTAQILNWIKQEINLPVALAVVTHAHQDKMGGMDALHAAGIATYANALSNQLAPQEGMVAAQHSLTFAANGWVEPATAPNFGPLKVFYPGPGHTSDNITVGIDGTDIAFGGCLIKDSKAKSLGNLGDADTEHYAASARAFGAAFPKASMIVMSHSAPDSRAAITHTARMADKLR

Row | Structure (SMILES) | IC50 (NDM-1) [nM] | IC50 (IMP-1) [nM] | IC50 (VIM-1; [4]) [nM] | Escherichia coli MITC95 [1] [µM] | Klebsiella pneumoniae MITC95 [2] [µM] | Serratia marcescens MITC95 [3] [µM] | IC50 (VIM-1; VIM-1 IC50, VIM-1 enzyme) [nM]
1 | NC(=O)c1ccc(-c2ccc(C(F)(F)F)c(S(N)(=O)=O)c2-c2nn[nH]n2)cn1 [Example 527, 5-(3-Sulfamoyl-2-(2H-tetrazol-5-yl)-4-(trifluoromethyl)phenyl)picolinamide] | 7.03 | 10.6 | 2.89 | 6.25 | 12.5 | 12.5 | –
2 | NC(=O)c1cc2cccc(-c3ccc(C(F)(F)F)c(S(N)(=O)=O)c3-c3nn[nH]n3)c2[nH]1 [Example 528, 7-(3-Sulfamoyl-2-(2H-tetrazol-5-yl)-4-(trifluoromethyl)phenyl)-1H-indole-2-carboxamide] | 0.0248 | 0.425 | 0.146 | 1.563 | 12.5 | 3.125 | –
3 | NS(=O)(=O)c1c(C2CC2)ccc(-c2cccc3ncccc23)c1-c1nn[nH]n1 [Example 529, 6-Cyclopropyl-3-(quinolin-5-yl)-2-(2H-tetrazol-5-yl)benzenesulfonamide] | 2.2 | 6.3 | 0.991 | 3.906 | 9.375 | 0.7813 | –
4 | NS(=O)(=O)c1c(CCO)ccc(-c2cccc3ncccc23)c1-c1nn[nH]n1 [Example 530, 6-(2-Hydroxyethyl)-3-(quinolin-5-yl)-2-(2H-tetrazol-5-yl)benzenesulfonamide] | 1.15 | 25.9 | 0.3 | 3.125 | 4.688 | 0.5859 | –
5 | Nc1nc2c(-c3ccc(CCO)c(S(N)(=O)=O)c3-c3nn[nH]n3)cccc2s1 [Example 531, 3-(2-Aminobenzo[d]thiazol-4-yl)-6-(2-hydroxyethyl)-2-(2H-tetrazol-5-yl)benzenesulfonamide] | 2.07 | 32.1 | 8.36 | 6.25 | 12.5 | 12.5 | –
6 | Nc1nc2c(-c3ccc(C(F)CO)c(S(N)(=O)=O)c3-c3nn[nH]n3)cccc2s1 (stereo not drawn) [Example 532, 3-(2-Aminobenzo[d]thiazol-4-yl)-6-(1-fluoro-2-hydroxyethyl)-2-(2H-tetrazol-5-yl)benzenesulfonamide] | 0.598 | 6.42 | 3.96 | 12.5 | 12.5 | 12.5 | –
7 | Nc1nc2c(-c3ccc(CCCO)c(S(N)(=O)=O)c3-c3nn[nH]n3)cccc2s1 [Example 533, 3-(2-Aminobenzo[d]thiazol-4-yl)-6-(3-hydroxypropyl)-2-(2H-tetrazol-5-yl)benzenesulfonamide] | 0.878 | 16.6 | 2.88 | 3.125 | 12.5 | 12.5 | –
8 | Nc1nc2c(-c3ccc(CCCCCO)c(S(N)(=O)=O)c3-c3nn[nH]n3)cccc2s1 [Example 534, 3-(2-Aminobenzo[d]thiazol-4-yl)-6-(5-hydroxypentyl)-2-(2H-tetrazol-5-yl)benzenesulfonamide] | 0.444 | 9.53 | 0.843 | 6.25 | 12.5 | 25 | –
9 | Nc1nc2c(-c3ccc(CC4CCC4)c(S(N)(=O)=O)c3-c3nn[nH]n3)cccc2s1 [Example 535, 3-(2-Aminobenzo[d]thiazol-4-yl)-6-(cyclobutylmethyl)-2-(2H-tetrazol-5-yl)benzenesulfonamide] | 0.844 | 6.86 | 2.71 | 6.25 | 50 | 25 | –
10 | Nc1ncc(-c2ccc(-c3cccc4sc(N)nc34)c(-c3nn[nH]n3)c2S(N)(=O)=O)s1 [Example 536, 3-(2-Aminobenzo[d]thiazol-4-yl)-6-(2-aminothiazol-5-yl)-2-(2H-tetrazol-5-yl)benzenesulfonamide] | 2.71 | 39.4 | 4.12 | 6.25 | 25 | 50 | –
11 | Nc1nc2c(-c3ccc(CCC(=O)O)c(S(N)(=O)=O)c3-c3nn[nH]n3)cccc2s1 [Example 538, 3-(4-(2-Aminobenzo[d]thiazol-4-yl)-2-sulfamoyl-3-(2H-tetrazol-5-yl)phenyl)propanoic acid] | 1.4 | 53.8 | 40.3 | 6.25 | 100 | 50 | –
12 | NC(=O)CCc1ccc(-c2cccc3sc(N)nc23)c(-c2nn[nH]n2)c1S(N)(=O)=O [Example 539, 3-(4-(2-Aminobenzo[d]thiazol-4-yl)-2-sulfamoyl-3-(2H-tetrazol-5-yl)phenyl)propanamide] | 0.192 | 7.62 | 1.85 | 3.125 | 25 | 12.5 | –
13 | Nc1nc2c(-c3ccc(CCC4CCC(N)CC4)c(S(N)(=O)=O)c3-c3nn[nH]n3)cccc2s1 (stereo not drawn) [Example 541, 3-(2-Aminobenzo[d]thiazol-4-yl)-6-(2-(4-aminocyclohexyl)ethyl)-2-(2H-tetrazol-5-yl)benzenesulfonamide] | 0.133 | 7.21 | 5.11 | 3.125 | 25 | 6.25 | –
14 | NS(=O)(=O)c1c(CCCCCO)ccc(CCCCCO)c1-c1nn[nH]n1 [Example 542, 3,6-Bis(5-hydroxypentyl)-2-(2H-tetrazol-5-yl)benzenesulfonamide] | 11.5 | 7.9 | 6.43 | 25 | 100 | 6.25 | –
15 | NS(=O)(=O)c1c(CCCCCCO)ccc(CCCCCCO)c1-c1nn[nH]n1 [Example 543, 3,6-Bis(6-hydroxyhexyl)-2-(2H-tetrazol-5-yl)benzenesulfonamide] | 2.62 | 1.16 | 3.21 | 50 | >200 | 12.5 | –
16 | Nc1nc2c(-c3ccc(CC4CNC4)c(S(N)(=O)=O)c3-c3nn[nH]n3)cccc2s1 [Example 545, 3-(2-aminobenzo[d]thiazol-4-yl)-6-(azetidin-3-ylmethyl)-2-(2H-tetrazol-5-yl)benzenesulfonamide] | 2.72 | 21.8 | – | 0.7813 | 3.125 | 3.125 | 7.69
17 | NS(=O)(=O)c1c(CC2CNC2)ccc(-c2cnc3ccccn23)c1-c1nn[nH]n1 [Example 546, 6-(azetidin-3-ylmethyl)-3-(imidazo[1,2-a]pyridin-3-yl)-2-(2H-tetrazol-5-yl)benzenesulfonamide] | 33.8 | 178 | 38.6 | 1.563 | 12.5 | 12.5 | –
18 | N[C@]1(c2ccc(-c3ccc(C(F)(F)F)c(S(N)(=O)=O)c3-c3nn[nH]n3)cc2)CCNC1 [Example 547, 3-[4-[(3S)-3-aminopyrrolidin-3-yl]phenyl]-2-(2H-tetrazol-5-yl)-6-(trifluoromethyl)benzenesulfonamide] | 9.32 | 9.14 | 1.18 | 6.25 | 6.25 | 3.125 | –
19 | N[C@@]1(c2ccc(-c3ccc(C(F)(F)F)c(S(N)(=O)=O)c3-c3nn[nH]n3)cc2)CCNC1 [Example 548, 3-[4-[(3R)-3-aminopyrrolidin-3-yl]phenyl]-2-(2H-tetrazol-5-yl)-6-(trifluoromethyl)benzenesulfonamide] | 7.54 | 10.5 | 0.519 | 3.125 | 1.563 | 3.125 | –
20 | Nc1nc2ccc(-c3ccc(C(F)(F)F)c(S(N)(=O)=O)c3-c3nnn[nH]3)cc2s1 [Example 549, 3-(2-amino-1,3-benzothiazol-6-yl)-2-(1H-tetrazol-5-yl)-6-(trifluoromethyl)benzenesulfonamide] | 0.256 | 0.472 | – | 1.563 | 6.25 | 3.125 | 0.0629
21 | Nc1nc2cc(-c3ccc(C(F)(F)F)c(S(N)(=O)=O)c3-c3nnn[nH]3)ccc2s1 [Example 550, 3-(2-amino-1,3-benzothiazol-5-yl)-2-(1H-tetrazol-5-yl)-6-(trifluoromethyl)benzenesulfonamide] | 0.753 | 2.52 | 0.315 | 3.125 | 12.5 | 3.125 | –
